According to publication PMC8007111, “Novel Potent Muscarinic Receptor Antagonists: Investigation on the Nature of Lipophilic Substituents in the 5- and/or 6-Positions of the 1,4-Dioxane Nucleus” (Journal of Medicinal Chemistry, 2020):

How the values were obtained:
Details in all cases: [3H]NMS, CHO-K1 cell membranes, mean ± S.E.M.
[1] = target: T1, hM3 mAChR (Homo sapiens, UniProt P20309); assay: [3H]NMS inhibition radioligand binding, hM3 in CHO-K1 cell membranes
T1 construct: expressed in transfected cells; host or cells: CHO-K1 (membrane preparation)
Description: (§1) CHO-K1 cells stably transfected with the human muscarinic receptor subtypes (hM1–5) were grown in Dulbecco’s modified Eagle’s medium (DMEM) with nutrient mixture F12 (DMEM/F12, 50/50), containing 10% fetal bovine serum, penicillin (100 U/mL), streptomycin (100 U/mL), L-glutamine (4 mM), and geneticin (G-418, 50 μg/mL) at 37 °C in a 5% CO2 humidified incubator. […] Serum (0.7 mL) was added to inactivate the trypsin, and the cells were spun down by centrifuging at 300g for 5 min. The cells were then resuspended in ice-cold 25 mM sodium phosphate buffer containing 5 mM MgCl2, pH 7.4 (binding buffer) and homogenized using a cell disrupter (Ultra-Turrax, setting 3, 30 s). The homogenate was sedimented by centrifugation (17,000g, 15 min). The supernatant was discarded, and the resulting membrane pellets were resuspended with Ultra-Turrax in the same buffer to give a final protein concentration of 1–2 mg/mL. The protein content was determined by the method of Bradford (1976) with bovine serum albumin (Sigma) as a standard and stored at −80 °C.
(§2) Inhibition radioligand binding assays were conducted as previously described[48],[49] with 0.2 nM [^3H]NMS in binding buffer in a final volume of 250 μL. Nonspecific binding was defined in the presence of 10 μM atropine. Briefly, membrane fractions (about 25–70 μg/mL of protein) were incubated with radioligand and unlabeled test compounds for 2 h at r.t. Bound and free radioactivity were separated by filtering the assay mixture through UniFilter GF/B plates using a FilterMate Cell Harvester (PerkinElmer Life and Analytical Science). The filter bound radioactivity was counted by a TopCount NXT Microplate Scintillation Counter (PerkinElmer Life and Analytical Science). Data (cpm) were normalized to percentage-specific binding and analyzed using a four-parameter logistic equation in GraphPad Prism 5.02; IC50 values were determined, and Ki values were calculated.[59]

[2] = target: T2, hM1 mAChR (Homo sapiens, UniProt P11229); assay: [3H]NMS inhibition radioligand binding, hM1 in CHO-K1 cell membranes
T2 construct: expressed in transfected cells; host or cells: CHO-K1 (membrane preparation)
T2 sequence (P11229 1-460): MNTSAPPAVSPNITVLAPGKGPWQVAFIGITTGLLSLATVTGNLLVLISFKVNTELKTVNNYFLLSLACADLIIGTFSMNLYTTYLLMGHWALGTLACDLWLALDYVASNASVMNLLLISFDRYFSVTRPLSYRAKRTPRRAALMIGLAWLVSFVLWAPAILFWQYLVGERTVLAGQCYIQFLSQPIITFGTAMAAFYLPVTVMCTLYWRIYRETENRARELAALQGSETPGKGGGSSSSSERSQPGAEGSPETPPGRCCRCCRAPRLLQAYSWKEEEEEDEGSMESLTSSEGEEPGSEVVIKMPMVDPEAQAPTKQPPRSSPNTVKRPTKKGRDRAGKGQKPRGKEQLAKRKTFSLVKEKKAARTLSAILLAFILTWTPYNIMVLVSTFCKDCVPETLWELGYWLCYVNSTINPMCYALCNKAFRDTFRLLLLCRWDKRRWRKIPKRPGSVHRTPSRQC
Description: as §1, §2

[3] = target: T3, hM4 mAChR (Homo sapiens, UniProt P08173); assay: [3H]NMS inhibition radioligand binding, hM4 in CHO-K1 cell membranes
T3 construct: expressed in transfected cells; host or cells: CHO-K1 (membrane preparation)
T3 sequence (P08173 1-479): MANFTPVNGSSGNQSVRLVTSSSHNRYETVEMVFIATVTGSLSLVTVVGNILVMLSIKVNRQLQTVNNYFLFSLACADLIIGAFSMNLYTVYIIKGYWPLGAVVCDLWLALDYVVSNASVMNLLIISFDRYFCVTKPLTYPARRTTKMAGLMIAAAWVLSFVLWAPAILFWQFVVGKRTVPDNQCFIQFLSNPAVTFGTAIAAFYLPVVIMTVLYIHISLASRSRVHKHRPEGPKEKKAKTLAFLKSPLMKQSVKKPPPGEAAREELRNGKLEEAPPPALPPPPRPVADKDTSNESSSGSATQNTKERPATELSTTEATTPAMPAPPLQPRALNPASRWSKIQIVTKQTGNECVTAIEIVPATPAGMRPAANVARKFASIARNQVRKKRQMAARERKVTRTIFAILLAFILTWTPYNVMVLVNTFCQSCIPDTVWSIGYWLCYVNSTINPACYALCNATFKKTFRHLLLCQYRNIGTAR
Description: as §1, §2

[4] = target: T4, hM2 mAChR (Homo sapiens, UniProt P08172); assay: [3H]NMS inhibition radioligand binding, hM2 in CHO-K1 cell membranes
T4 construct: expressed in transfected cells; host or cells: CHO-K1 (membrane preparation)
T4 sequence (P08172 1-466): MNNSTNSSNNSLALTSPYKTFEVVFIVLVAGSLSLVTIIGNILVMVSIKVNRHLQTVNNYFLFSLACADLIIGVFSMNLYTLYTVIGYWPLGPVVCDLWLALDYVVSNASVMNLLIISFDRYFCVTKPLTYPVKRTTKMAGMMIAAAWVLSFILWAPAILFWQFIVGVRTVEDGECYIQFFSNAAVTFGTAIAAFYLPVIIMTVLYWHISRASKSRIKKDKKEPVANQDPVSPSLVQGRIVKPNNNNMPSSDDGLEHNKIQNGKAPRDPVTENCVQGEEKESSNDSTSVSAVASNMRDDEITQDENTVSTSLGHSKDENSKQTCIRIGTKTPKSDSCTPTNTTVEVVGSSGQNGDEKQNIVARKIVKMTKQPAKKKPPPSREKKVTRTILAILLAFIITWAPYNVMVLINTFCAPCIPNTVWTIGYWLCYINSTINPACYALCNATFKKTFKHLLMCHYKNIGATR
Description: as §1, §2

[5] = target: T5, hM5 mAChR (Homo sapiens, UniProt P08912); assay: [3H]NMS inhibition radioligand binding, hM5 in CHO-K1 cell membranes
T5 construct: expressed in transfected cells; host or cells: CHO-K1 (membrane preparation)
T5 sequence (P08912 1-532): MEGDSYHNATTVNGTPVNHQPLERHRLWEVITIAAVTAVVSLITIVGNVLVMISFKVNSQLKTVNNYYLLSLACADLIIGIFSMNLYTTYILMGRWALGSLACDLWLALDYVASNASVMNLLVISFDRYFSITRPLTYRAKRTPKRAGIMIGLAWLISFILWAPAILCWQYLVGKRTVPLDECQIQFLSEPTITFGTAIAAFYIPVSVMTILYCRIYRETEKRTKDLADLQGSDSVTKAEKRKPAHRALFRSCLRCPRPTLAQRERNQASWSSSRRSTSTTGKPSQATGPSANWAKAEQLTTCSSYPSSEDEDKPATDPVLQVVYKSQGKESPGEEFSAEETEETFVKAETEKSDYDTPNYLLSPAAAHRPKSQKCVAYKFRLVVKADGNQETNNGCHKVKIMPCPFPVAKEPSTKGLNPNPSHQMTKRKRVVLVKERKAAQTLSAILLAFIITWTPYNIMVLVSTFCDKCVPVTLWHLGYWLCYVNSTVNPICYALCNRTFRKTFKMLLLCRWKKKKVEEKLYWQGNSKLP
Description: as §1, §2

T1 sequence (P20309 whole entry): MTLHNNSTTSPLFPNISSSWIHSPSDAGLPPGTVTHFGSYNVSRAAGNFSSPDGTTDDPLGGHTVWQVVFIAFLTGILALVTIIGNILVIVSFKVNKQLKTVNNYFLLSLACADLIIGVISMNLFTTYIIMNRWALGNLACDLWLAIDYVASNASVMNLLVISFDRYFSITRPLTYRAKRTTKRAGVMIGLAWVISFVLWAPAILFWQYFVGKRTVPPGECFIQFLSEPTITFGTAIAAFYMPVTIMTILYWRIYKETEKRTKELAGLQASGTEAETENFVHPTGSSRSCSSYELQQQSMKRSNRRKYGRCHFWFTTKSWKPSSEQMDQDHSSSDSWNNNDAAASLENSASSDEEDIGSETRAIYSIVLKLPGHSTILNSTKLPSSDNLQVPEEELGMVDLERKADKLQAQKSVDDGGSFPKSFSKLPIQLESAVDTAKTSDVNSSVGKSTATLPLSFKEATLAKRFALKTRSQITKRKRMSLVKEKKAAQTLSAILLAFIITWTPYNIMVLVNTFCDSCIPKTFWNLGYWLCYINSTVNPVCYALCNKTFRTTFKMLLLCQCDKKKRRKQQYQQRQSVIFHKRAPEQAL

Row | Structure (SMILES) | Ki ([1]; read-out: pKi hM3 (converted)) [µM] | Ki ([2]; read-out: pKi hM1 (converted)) [µM] | Ki ([3]; read-out: pKi hM4 (converted)) [µM] | Ki ([4]; read-out: pKi hM2 (converted)) [µM] | Ki ([5]; read-out: pKi hM5 (converted)) [µM] | pKi hM3 [1] | pKi hM1 [2] | pKi hM4 [3] | pKi hM2 [4] | pKi hM5 [5]
1 | C[N+](C)(C)CC1COCC(c2ccc(Cc3ccccc3)cc2)O1 (mixture of isomers) [5a/b, 1-((2R*,6S*)-6-(4-Benzylphenyl)-1,4-dioxan-2-yl)-N,N,N-trimethylmethanaminium Iodide and 1-((2R*,6R*)-6-(4-Benzylphenyl)-1,4-dioxan-2-yl)-N,N,N-trimethylmethanaminium Iodide] | > 10 | > 10 | > 10 | 4.9 | 7.41 | – | – | – | – | –
2 | C[N+](C)(C)C[C@@H]1COC[C@H](c2ccc(-c3ccccc3)cc2)O1.[I-] (relative stereo) [4a, 1-((2R*,6S*)-6-([1,1′-Biphenyl]-4-yl)-1,4-dioxan-2-yl)-N,N,N-trimethylmethanaminium Iodide] | – | – | – | – | – | <5 | <5 | <5 | 5.06 ± 0.02 | <5
3 | C[N+](C)(C)C[C@@H]1COC[C@@H](c2ccc(-c3ccccc3)cc2)O1.[I-] (relative stereo) [4b, 1-((2R*,6R*)-6-([1,1′-Biphenyl]-4-yl)-1,4-dioxan-2-yl)-N,N,N-trimethylmethanaminium Iodide] | – | – | – | – | – | <5 | <5 | <5 | 5.27 ± 0.12 | <5
4 | C[N+](C)(C)C[C@@H]1COC[C@H](c2ccc(Sc3ccccc3)cc2)O1.[I-] (relative stereo) [6a, 1-((2R*,6S*)-6-(4-(Phenylthio)phenyl)-1,4-dioxan-2-yl)-N,N,N-trimethylmethanaminium Iodide] | – | – | – | – | – | <5 | 5.50 ± 0.05 | 5.43 ± 0.05 | 5.47 ± 0.07 | 5.58 ± 0.13
5 | C[N+](C)(C)C[C@@H]1COC[C@@H](c2ccc(Sc3ccccc3)cc2)O1.[I-] (relative stereo) [6b, 1-((2R*,6R*)-6-(4-(Phenylthio)phenyl)-1,4-dioxan-2-yl)-N,N,N-trimethylmethanaminium Iodide] | – | – | – | – | – | 5.77 ± 0.05 | 5.51 ± 0.01 | 5.70 ± 0.02 | 6.71 ± 0.01 | 5.95 ± 0.13
6 | C[N+](C)(C)C[C@@H]1COC[C@H](c2ccc([S+]([O-])c3ccccc3)cc2)O1.[I-] (relative stereo) [7a, 1-((2R*,6S*)-6-(4-(Phenylsulfinyl)phenyl)-1,4-dioxan-2-yl)-N,N,N-trimethylmethanaminium Iodide] | – | – | – | – | – | <5 | <5 | <5 | 5.52 ± 0.02 | 5.21 ± 0.08
7 | C[N+](C)(C)C[C@@H]1COC[C@@H](c2ccc([S+]([O-])c3ccccc3)cc2)O1.[I-] (relative stereo) [7b, 1-((2R*,6R*)-6-(4-(Phenylsulfinyl)phenyl)-1,4-dioxan-2-yl)-N,N,N-trimethylmethanaminium Iodide] | – | – | – | – | – | 5.88 ± 0.14 | 5.17 ± 0.08 | 5.42 ± 0.02 | 6.38 ± 0.10 | 5.74 ± 0.16
8 | C[N+](C)(C)C[C@@H]1COC[C@H](c2ccc(S(=O)(=O)c3ccccc3)cc2)O1.[I-] (relative stereo) [8a, 1-((2R*,6S*)-6-(4-(Phenylsulfonyl)phenyl)-1,4-dioxan-2-yl)-N,N,N-trimethylmethanaminium Iodide] | – | – | – | – | – | <5 | 5.08 ± 0.09 | <5 | 5.13 ± 0.01 | 5.21 ± 0.14
9 | C[N+](C)(C)C[C@@H]1COC[C@@H](c2ccc(S(=O)(=O)c3ccccc3)cc2)O1.[I-] (relative stereo) [8b, 1-((2R*,6R*)-6-(4-(Phenylsulfonyl)phenyl)-1,4-dioxan-2-yl)-N,N,N-trimethylmethanaminium Iodide] | – | – | – | – | – | 5.63 ± 0.14 | 5.29 ± 0.07 | 5.20 ± 0.07 | 6.70 ± 0.01 | 5.80 ± 0.06
10 | C[N+](C)(C)C[C@@H]1CO[C@H](c2ccccc2)CO1.[I-] (relative stereo) [9a, 1-((2R*,5R*)-5-Phenyl-1,4-dioxan-2-yl)-N,N,N-trimethylmethanaminium Iodide] | – | – | – | – | – | 5.14 ± 0.10 | 5.63 ± 0.07 | 5.10 ± 0.07 | 5.06 ± 0.10 | <5
